The record followed here is BindingDB's records for doi:10.1021/jm101144f (Dana-Farber Cancer Institute, 2010).

Structures are written as SMILES. pIC50: −log10 of the molar value. Bounds are passed on as bounds.

What is called pIC50 is the IC50 on a negative log10 scale, so that one unit is a factor of ten.

This assay can be described thus: Inhibition of PI3Kalpha in human PC3 cells expressing Akt1 S473D mutant assessed as phosphorylation of Akt Thr308 by immunoblotting. On the technique in general: Immunoblotting shows a protein as a band on a membrane.

On to `COCCC(=O)N1CCN(c2ccc(Nc3ccnc4ccc(-c5cnc6ccccc6c5)cc34)cc2C(F)(F)F)CC1` [1-(4-(4-([3,6'-biquinolin]-4'-ylamino)-2-(trifluoromethyl)phenyl)piperazin-1-yl)-3-methoxypropan-1-one], for which the pIC50 was less than 6.52.
